According to US8415469B2, “Compounds and methods for kinase modulation, and indications therefor” (Plexxikon Inc., priority 2005, dated 2013):
Where two headings read alike, the source gives them in different places.

Tests used:
Format in all cases: biochemical
FGFR1 = molecular target: T1, FGFR1 (Homo sapiens, UniProt P11362, C488A/C584S); experiment: AlphaScreen kinase assay, FGFR1; conditions: read-out: IC50, activity toward kinase FGFR
T1 construct: P1351.pET N6 BI-PTP FGFR A458-E765-X C488A, C584S; made in house; host or cells: E. coli (PTP1B co-expressed)
T1 sequence (P11362 458-765 C488A/C584S): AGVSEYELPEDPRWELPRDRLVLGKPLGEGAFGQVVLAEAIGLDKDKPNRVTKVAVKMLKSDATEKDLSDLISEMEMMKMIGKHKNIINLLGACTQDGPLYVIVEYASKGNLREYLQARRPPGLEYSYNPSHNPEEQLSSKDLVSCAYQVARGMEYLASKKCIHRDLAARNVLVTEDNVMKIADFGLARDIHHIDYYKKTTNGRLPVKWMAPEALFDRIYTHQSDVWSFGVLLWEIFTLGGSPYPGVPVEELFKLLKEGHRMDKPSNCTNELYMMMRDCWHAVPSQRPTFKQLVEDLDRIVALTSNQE

Met = molecular target: T2, Met (Homo sapiens, UniProt P08581); experiment: AlphaScreen kinase assay, Met; conditions: read-out: IC50, activity toward kinase Met
T2 construct: P1818.pETN6 BI-PTP MET G1056-G1364-X WT; His6 (N); made in house; host or cells: E. coli (PTP1B co-expressed)
T2 sequence (P08581 with tags, fused parts or gaps): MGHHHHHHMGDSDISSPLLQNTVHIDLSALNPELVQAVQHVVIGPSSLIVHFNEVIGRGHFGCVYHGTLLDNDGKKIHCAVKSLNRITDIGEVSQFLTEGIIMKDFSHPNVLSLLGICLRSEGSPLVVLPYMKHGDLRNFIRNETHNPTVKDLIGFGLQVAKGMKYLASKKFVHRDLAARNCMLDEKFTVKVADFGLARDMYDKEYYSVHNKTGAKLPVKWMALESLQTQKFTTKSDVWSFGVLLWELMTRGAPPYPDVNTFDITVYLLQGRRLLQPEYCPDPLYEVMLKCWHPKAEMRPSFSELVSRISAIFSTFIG
From the text: (§1) AlphaScreen assay was used to screen additional kinases. The assay is similarly dependent on the phosphorylation of a peptide substrate. In this assay, an antibody that recognizes phosphorylated substrate is bound to an acceptor bead. The peptide substrate is attached to biotin, which binds to a donor head that contains streptavidin. Thus phosphorylated substrate is bound by antibody and streptavidin, bringing the donor and acceptor heads into close proximity when kinase is not inhibited. The donor produces singlet oxygen which results in emission from the acceptor when they are in close proximity. Conversely, when kinase is inhibited, the donor and acceptor beads are not associated and the emission from the acceptor is reduced.
(§2) AlphaScreen assays were done using compounds dissolved in DMSO to a concentration of 20 mM. The compounds were diluted accordingly to the desired final concentrations in each sample well, using 1:3 serial dilution for a total of 8 concentration points.

Src = molecular target: T3, Src (Homo sapiens, UniProt P12931); experiment: AlphaScreen kinase assay, Src; conditions: read-out: IC50, activity toward kinase Src
T3 construct: P1144. pET-N6 BI-PTP SRC V86-L536-X; made in house
T3 sequence (P12931 with tags, fused parts or gaps): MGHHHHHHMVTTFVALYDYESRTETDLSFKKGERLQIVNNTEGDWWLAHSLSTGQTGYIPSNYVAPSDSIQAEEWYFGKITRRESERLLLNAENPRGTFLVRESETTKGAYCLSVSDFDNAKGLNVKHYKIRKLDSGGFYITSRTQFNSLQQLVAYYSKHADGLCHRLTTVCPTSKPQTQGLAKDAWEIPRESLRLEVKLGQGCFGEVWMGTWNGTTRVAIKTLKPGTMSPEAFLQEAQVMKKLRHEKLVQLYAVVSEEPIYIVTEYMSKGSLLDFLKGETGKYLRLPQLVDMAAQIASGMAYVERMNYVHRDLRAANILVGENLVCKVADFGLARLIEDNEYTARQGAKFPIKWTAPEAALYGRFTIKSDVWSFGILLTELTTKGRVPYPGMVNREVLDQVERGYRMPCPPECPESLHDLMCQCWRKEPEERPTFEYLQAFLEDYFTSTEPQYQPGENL

B-Raf V600E = molecular target: T4, B-Raf V600E (Homo sapiens, UniProt P15056, V600E); experiment: AlphaScreen kinase assay, B-Raf V600E
T4 construct: P4254. pFastBacBD-CDC37 BRAF D437-K722-X, V600E; His6 with pFastBac HT leader (TEV site) (N); made in house; host or cells: Sf9 (baculovirus; chaperone CDC37 co-expressed)
T4 sequence (P15056 with tags, fused parts or gaps V600E): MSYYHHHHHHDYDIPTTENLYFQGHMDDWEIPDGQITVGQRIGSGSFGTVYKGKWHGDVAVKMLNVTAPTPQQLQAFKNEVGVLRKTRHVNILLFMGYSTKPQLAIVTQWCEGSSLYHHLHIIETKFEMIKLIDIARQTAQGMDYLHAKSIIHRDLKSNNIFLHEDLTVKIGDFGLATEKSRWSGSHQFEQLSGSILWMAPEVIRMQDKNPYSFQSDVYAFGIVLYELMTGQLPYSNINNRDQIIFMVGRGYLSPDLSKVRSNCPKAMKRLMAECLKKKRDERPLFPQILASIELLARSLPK

Zap70 = molecular target: T5, Zap70 (Homo sapiens, UniProt P43403); experiment: AlphaScreen kinase assay, Zap70; conditions: read-out: IC50, activity toward kinase Zap70
T5 construct: P1868.pFastBac1 ZAP70 D327-G606 HIS, WT; His7 (HHHHHHH) (C); made in house
T5 sequence (P43403 with tags, fused parts or gaps): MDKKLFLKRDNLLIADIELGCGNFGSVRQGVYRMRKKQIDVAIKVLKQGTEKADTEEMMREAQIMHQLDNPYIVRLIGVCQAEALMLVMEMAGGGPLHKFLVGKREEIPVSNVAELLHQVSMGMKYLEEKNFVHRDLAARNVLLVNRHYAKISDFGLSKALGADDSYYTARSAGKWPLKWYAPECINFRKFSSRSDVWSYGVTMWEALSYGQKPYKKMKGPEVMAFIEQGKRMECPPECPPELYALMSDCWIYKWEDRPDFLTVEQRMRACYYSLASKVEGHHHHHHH
In short: (§3)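 Uses phospho-specific antibody on acceptor beads plus streptavidin donor beads capturing biotinylated peptide substrate; singlet oxygen from donor excites nearby acceptor. Inhibitors tested in 8-point, 1:3 titrations starting from 20 mM DMSO solutions.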

Jnk3 = molecular target: T6, Jnk3 (Homo sapiens, UniProt P53779); experiment: AlphaScreen kinase assay, Jnk3; conditions: read-out: IC50, activity toward kinase Jnk3
T6 construct: purchased Upstate Biotechnology

Fak = molecular target: T7, Fak (Homo sapiens, UniProt Q05397); experiment: AlphaScreen kinase assay, Fak; conditions: read-out: IC50, activity toward kinase Fak
T7 construct: P1358.pFastBacHtb FAK S411-Q686-X; His6 with pFastBacHTb leader (TEV site) (N); made in house; host or cells: Sf9 (baculovirus)
T7 sequence (Q05397 411-686): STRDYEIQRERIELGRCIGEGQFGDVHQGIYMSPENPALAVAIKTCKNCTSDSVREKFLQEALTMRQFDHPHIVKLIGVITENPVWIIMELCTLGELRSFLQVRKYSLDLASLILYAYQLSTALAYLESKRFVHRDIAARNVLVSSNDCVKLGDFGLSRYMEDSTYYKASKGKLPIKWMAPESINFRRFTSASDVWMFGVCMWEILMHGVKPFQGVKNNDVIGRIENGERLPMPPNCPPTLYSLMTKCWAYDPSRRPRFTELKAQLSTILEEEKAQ

B-Raf = molecular target: T8, B-Raf (Homo sapiens, UniProt P15056); experiment: AlphaScreen kinase assay, B-Raf
T8 construct: purchased Upstate Biotechnology

Fms = molecular target: T9, Fms (Homo sapiens, UniProt P07333); experiment: AlphaScreen kinase assay, Fms; conditions: read-out: IC50, activity toward kinase Fms
T9 construct: purchased Upstate Biotechnology

Akt3 = Akt3 (Homo sapiens, UniProt Q9Y243); experiment: AlphaScreen kinase assay, Akt3; conditions: read-out: IC50, activity toward kinase Akt3
From the text: as §1, §2

Kit = molecular target: T10, Kit (Homo sapiens, UniProt P10721); experiment: AlphaScreen kinase assay, Kit; conditions: read-out: IC50, activity toward kinase Kit
T10 construct: P1332.N6 BI PTP KIT M552-K948-X COD; His6 (N); made in house; host or cells: E. coli (PTP1B co-expressed)
T10 sequence (P10721 with tags, fused parts or gaps): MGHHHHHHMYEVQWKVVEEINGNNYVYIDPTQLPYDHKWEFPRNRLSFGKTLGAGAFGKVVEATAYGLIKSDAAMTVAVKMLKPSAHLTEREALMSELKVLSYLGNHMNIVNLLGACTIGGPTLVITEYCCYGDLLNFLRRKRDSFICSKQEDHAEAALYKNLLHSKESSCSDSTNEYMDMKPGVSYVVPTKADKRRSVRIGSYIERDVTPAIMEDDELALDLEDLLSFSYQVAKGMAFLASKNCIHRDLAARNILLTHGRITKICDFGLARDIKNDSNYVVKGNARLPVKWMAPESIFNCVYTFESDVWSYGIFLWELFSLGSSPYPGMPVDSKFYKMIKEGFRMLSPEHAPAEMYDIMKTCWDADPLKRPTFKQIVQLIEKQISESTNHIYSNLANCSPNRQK

Ret = molecular target: T11, Ret (Homo sapiens, UniProt P07949); experiment: AlphaScreen kinase assay, Ret; conditions: read-out: IC50, activity toward kinase Ret
T11 construct: P1378.pET-SF BI-PTP RET H661-R1012 HIS; made in house
T11 sequence (P07949 with tags, fused parts or gaps): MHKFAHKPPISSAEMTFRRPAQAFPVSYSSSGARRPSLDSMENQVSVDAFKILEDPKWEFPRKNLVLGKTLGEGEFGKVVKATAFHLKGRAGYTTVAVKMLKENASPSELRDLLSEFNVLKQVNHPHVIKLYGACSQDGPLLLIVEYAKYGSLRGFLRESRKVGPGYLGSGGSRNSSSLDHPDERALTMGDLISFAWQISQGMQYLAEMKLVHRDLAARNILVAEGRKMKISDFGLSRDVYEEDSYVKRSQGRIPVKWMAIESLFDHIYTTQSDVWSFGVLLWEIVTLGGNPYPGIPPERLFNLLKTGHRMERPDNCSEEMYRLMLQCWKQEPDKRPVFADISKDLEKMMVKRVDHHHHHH

c-Raf-1 = molecular target: T12, c-Raf-1 (Homo sapiens, UniProt P04049); experiment: AlphaScreen kinase assay, c-Raf-1; conditions: read-out: IC50, activity toward kinase c-Raf-1
T12 construct: purchased Upstate Biotechnology
T12 sequence (P04049 whole entry): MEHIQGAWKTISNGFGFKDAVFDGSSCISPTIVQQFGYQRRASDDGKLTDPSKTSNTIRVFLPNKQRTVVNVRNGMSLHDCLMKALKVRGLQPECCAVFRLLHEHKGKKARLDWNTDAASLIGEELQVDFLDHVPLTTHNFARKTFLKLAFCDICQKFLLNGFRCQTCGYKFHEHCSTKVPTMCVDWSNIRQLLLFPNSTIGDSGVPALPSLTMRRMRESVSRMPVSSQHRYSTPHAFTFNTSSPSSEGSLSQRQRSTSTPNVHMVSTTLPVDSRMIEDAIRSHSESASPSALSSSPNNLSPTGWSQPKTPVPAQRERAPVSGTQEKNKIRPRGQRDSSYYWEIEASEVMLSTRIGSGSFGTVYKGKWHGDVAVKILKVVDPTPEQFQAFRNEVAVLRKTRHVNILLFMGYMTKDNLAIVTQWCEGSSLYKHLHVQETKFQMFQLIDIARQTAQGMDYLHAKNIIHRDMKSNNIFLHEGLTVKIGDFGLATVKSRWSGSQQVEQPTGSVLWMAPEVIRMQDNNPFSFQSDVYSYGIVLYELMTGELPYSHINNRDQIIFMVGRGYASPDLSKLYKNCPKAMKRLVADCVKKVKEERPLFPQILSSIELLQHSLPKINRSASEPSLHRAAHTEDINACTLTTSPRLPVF

Flt1 = molecular target: T13, Flt1 (Homo sapiens, UniProt P17948); experiment: AlphaScreen kinase assay, Flt1; conditions: read-out: IC50, activity toward kinase Flt1
T13 construct: P1826.pETN6 BI-PTP FLT1 M799-D1165-X WT; His6 (N); made in house; host or cells: E. coli (PTP1B co-expressed)
T13 sequence (P17948 with tags, fused parts or gaps): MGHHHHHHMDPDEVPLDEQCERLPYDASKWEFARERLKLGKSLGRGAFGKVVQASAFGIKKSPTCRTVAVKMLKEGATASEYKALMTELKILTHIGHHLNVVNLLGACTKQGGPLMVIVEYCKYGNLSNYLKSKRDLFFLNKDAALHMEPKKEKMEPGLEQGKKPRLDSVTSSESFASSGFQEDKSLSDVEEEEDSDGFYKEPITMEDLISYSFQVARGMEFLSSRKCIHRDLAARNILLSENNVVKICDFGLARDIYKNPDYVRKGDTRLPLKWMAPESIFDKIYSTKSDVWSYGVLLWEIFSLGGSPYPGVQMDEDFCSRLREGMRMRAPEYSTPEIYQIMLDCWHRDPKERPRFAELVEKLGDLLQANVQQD

Jnk1 = molecular target: T14, Jnk1 (Homo sapiens, UniProt P45983); experiment: AlphaScreen kinase assay, Jnk1; conditions: read-out: IC50, activity toward kinase Jnk1
T14 construct: purchased Upstate Biotechnology
T14 sequence (P45983 whole entry): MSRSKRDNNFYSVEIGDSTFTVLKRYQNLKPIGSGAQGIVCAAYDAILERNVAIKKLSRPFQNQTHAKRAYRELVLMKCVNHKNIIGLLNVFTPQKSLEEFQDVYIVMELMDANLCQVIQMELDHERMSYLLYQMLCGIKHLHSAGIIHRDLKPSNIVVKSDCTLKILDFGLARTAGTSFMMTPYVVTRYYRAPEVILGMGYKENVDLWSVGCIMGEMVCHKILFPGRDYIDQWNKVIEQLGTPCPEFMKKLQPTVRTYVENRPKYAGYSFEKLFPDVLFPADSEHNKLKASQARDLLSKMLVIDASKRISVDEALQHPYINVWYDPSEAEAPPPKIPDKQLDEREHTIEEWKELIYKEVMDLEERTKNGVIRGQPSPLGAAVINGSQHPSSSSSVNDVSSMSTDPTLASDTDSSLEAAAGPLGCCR

MAP4K4 = MAP4K4 (Homo sapiens, UniProt O95819); experiment: AlphaScreen kinase assay, MAP4K4; conditions: read-out: IC50, activity toward kinase MAP4K4
Abl = molecular target: T15, Abl (Homo sapiens, UniProt P00519); experiment: AlphaScreen kinase assay, Abl; conditions: read-out: activity toward kinase Abl, IC50
T15 construct: P1121. pET-SPEC BI-PTP Abl G227-V515-X; His6 (N); made in house; host or cells: E. coli (PTP1B co-expressed)
T15 sequence (P00519 with tags, fused parts or gaps): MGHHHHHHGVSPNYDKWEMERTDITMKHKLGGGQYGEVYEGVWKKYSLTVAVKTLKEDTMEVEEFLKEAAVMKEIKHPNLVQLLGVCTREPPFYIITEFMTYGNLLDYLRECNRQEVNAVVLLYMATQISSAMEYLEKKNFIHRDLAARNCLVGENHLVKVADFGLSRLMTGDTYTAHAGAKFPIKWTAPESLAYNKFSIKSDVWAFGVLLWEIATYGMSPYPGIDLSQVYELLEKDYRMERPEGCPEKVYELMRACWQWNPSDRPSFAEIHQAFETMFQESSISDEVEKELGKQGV
From the text: as §1, §2

Jnk2 = molecular target: T16, Jnk2 (Homo sapiens, UniProt P45984); experiment: AlphaScreen kinase assay, Jnk2; conditions: read-out: IC50, activity toward kinase Jnk2
T16 construct: purchased Roche Protein Expression Group (Indianapolis, IN)
T16 sequence (P45984 whole entry): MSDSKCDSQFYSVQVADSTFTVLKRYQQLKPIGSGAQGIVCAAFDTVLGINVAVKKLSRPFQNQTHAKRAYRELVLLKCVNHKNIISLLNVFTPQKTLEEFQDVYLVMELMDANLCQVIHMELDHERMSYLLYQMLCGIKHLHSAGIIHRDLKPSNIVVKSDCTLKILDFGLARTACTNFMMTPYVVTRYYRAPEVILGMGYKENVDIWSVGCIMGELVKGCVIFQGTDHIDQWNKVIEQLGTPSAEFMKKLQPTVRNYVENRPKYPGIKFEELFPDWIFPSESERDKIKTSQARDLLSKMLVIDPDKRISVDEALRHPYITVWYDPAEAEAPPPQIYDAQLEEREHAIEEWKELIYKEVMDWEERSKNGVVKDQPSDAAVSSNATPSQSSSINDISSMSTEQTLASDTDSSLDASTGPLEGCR
In short: as §3

Kdr = molecular target: T17, Kdr (Homo sapiens, UniProt P35968); experiment: Z'-Lyte FRET kinase assay (Invitrogen), Kdr; conditions: read-out: IC50, activity toward kinase Kdr
T17 construct: purchased Invitrogen (assay run by Invitrogen)
T17 sequence (P35968 20-1356): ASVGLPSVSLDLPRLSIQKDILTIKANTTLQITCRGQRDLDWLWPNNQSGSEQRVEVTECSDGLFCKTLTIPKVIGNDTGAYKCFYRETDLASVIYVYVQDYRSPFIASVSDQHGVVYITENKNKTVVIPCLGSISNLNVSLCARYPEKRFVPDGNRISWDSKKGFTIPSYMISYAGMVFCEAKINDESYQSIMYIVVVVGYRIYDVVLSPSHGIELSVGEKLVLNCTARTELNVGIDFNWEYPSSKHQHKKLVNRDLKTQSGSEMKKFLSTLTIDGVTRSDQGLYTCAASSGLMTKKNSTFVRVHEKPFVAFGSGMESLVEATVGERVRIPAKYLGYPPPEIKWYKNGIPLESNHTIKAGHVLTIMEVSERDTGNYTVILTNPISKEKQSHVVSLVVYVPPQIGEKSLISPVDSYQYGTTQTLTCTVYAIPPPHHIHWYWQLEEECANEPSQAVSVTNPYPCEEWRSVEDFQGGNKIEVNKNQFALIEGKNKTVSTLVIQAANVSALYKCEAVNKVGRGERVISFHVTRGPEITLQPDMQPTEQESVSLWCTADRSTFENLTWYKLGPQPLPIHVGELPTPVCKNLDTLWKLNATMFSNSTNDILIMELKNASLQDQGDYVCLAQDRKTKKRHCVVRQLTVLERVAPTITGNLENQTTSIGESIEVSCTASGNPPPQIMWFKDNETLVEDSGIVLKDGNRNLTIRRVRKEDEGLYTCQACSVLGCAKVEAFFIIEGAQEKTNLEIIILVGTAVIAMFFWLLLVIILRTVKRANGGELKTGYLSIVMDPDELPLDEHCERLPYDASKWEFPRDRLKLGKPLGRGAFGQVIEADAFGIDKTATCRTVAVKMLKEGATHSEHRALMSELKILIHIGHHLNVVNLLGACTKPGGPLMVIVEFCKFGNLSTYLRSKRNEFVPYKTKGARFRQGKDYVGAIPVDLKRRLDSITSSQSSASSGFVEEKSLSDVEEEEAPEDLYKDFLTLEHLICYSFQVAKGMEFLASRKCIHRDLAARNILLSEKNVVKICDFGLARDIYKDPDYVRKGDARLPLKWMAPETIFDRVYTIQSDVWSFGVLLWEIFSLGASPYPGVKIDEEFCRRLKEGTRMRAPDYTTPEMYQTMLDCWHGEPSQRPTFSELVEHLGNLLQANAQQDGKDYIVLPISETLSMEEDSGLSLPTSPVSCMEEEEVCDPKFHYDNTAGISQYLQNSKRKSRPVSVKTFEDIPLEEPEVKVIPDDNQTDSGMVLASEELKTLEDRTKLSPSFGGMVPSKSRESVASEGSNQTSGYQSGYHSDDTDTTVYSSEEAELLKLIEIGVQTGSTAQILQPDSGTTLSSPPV

Stk6 = molecular target: T18, Stk6 (Homo sapiens, UniProt O14965); experiment: Z'-Lyte FRET kinase assay (Invitrogen), Stk6; conditions: read-out: IC50, activity toward kinase Stk6
T18 construct: purchased Invitrogen (Carlsbad, Calif.), screening service
T18 sequence (O14965 1-403): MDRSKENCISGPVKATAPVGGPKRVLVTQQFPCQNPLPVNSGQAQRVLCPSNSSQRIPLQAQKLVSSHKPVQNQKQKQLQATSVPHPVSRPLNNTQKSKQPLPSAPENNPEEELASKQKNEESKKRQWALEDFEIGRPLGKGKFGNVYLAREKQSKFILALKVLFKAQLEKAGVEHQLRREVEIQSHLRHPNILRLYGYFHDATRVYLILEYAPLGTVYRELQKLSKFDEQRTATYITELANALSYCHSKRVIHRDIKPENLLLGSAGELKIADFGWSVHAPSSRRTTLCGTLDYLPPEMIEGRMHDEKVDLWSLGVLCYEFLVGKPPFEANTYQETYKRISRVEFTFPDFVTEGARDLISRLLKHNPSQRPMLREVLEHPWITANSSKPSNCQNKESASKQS

Pyk2 = molecular target: T19, Pyk2 (Homo sapiens, UniProt Q14289); experiment: AlphaScreen kinase assay, Pyk2; conditions: read-out: IC50, activity toward kinase Pyk2
T19 construct: purchased Upstate Biotechnology

[1] = read-out: IC50, activity toward kinase B-Raf V600E
[2] = read-out: IC50, activity toward kinase B-Raf

Measured: IC50

NC(=O)c1cccc(-c2cnc3[nH]cc(C(=O)c4cc(O)ccc4F)c3c2)c1 [Compound P-0037, 3-[3-(2-Fluoro-5-hydroxy-benzoyl)-1H-pyrrolo[2,3-b]pyridin-5-yl]-benzamide]
≤ 10 µM: FGFR1 | Met | Src | B-Raf V600E; [1] | Zap70 | Jnk3 | Fak | B-Raf; [2] | Fms | Akt3 | Kit | Ret | c-Raf-1 | Flt1 | Jnk1

CS(=O)(=O)Nc1ccc(F)c(C(=O)c2c[nH]c3ncccc23)c1F [Compound P-0811]
≤ 10 µM: MAP4K4 | FGFR1 | Met | B-Raf V600E; [1] | Fak | Fms | Ret | c-Raf-1

S=C(NCc1ccncc1)NCc1c[nH]c2ncccc12 [Compound P-0781]
≤ 10 µM: Met | Abl

COc1cccc(Cc2c[nH]c3ncc(-c4ccc(N)cc4)cc23)c1 [Compound P-0140]
≤ 10 µM: FGFR1 | Met | Jnk2 | Kdr | B-Raf V600E | Stk6 | B-Raf | Kit | Ret | Jnk1 | Abl

O=C(c1c(F)ccc(NS(=O)(=O)c2ccccc2)c1F)c1c[nH]c2ncc(-c3cccnc3)cc12 [Compound P-0685, N-[2,4-Difluoro-3-(5-pyridin-3-yl-1H-pyrrolo[2,3-b]pyridine-3-carbonyl)-phenyl]-benzenesulfonamide]
≤ 10 µM: MAP4K4 | FGFR1 | Met | Src | Jnk2 | B-Raf V600E; [1] | Fak | B-Raf; [2] | Fms | Kit | c-Raf-1 | Flt1 | Jnk1 | Pyk2

S=C(NCc1cccnc1)NCc1c[nH]c2ncccc12 [Compound P-1012]
≤ 10 µM: Met | Abl

Clc1ccc(Nc2ccnc3[nH]ccc23)cc1Cl [Compound P-0842]
≤ 10 µM: Met | B-Raf V600E; [1] | Zap70 | B-Raf; [2] | c-Raf-1

O=C(Nc1ccc(Cc2c[nH]c3ncccc23)cc1)Nc1ccc(Cl)c(C(F)(F)F)c1 [Compound P-0369]
≤ 10 µM: MAP4K4 | FGFR1 | Met | Kdr | B-Raf V600E; [1] | B-Raf; [2] | Fms | Kit | Ret | c-Raf-1 | Pyk2

COc1cccc(Cc2c[nH]c3ncc(-c4cccnc4)cc23)c1F [Compound P-0269, 3-(2-Fluoro-3-methoxy-benzyl)-5-pyridin-3-yl-1H-pyrrolo[2,3-b]pyridine]
≤ 10 µM: MAP4K4 | FGFR1 | Met | Src | Jnk2 | Kdr | B-Raf V600E; [1] | Stk6 | Jnk3 | Fak | B-Raf; [2] | Fms | Kit | Ret | c-Raf-1 | Flt1 | Jnk1 | Pyk2
